Experimental data as given in patent publication US8835392B2, “Mimetic peptides and the use thereof in the form of 20S, 26S and immunoproteasome inhibitors” (Technische Universität, priority 2005, dated 2014).
pIC50: −log10 of the molar value. “Also recorded” adds a separate entry of the source. Where a SMILES comes first, the peptide text is derived from it. The star is where a group is joined. Cbz = O=C(OCc1ccccc1)*; OtBu = CC(C)(C)O*

Assays:
[1] = target: T1, 20S proteasome β1 caspase-like activity (LLE-MCA) (Homo sapiens, UniProt P28072+Q99436); test: Protease assay, caspase-like activity of isolated 20S proteasomes; assay type: biochemical; settings: isolated 20S proteasome; LLE-MCA 50 μM; 15 min pre-incubation; read-out: IC50 β1 Caspase-like (E)
T1 construct: Proteasomes were isolated from red blood cells; from tissue; host or cells: red blood cells
Procedure: Proteasomes were isolated from red blood cells. Cells were lysed with DTT (1 mM), and the stroma-free supernatant was loaded on DEAE-sepharose (Toyopearls). Proteasome was eluted with an NaCl-gradient in TEAD (20 mM TrisCl pH 7.4, 1 mM EDTA, 1 mM azide, 1 mM DTT) of 100 to 300 mM NaCl. Proteasome was concentrated using ammonium sulfate-precipitation (between 40 and 70% saturation) and was separated in a 10-40% sucrose-gradient through centrifugation at 40.000 rpm for 16 hours (SW40; L7, Beckman & Coulter). Finally, the proteasomes were purified on a MonoQ-column and eluted with an NaCl-gradient at about 280 mM NaCl. The fractions containing purified proteasome were dialysed against 50 mM NaCl in TEAD and stored on ice. The purity was determined using SDS-PAGE.
(§1) Suc-LLVY-AMC, Z-VGR-AMC and LLE-AMC (BACHEM, Calbiochem) was used, in order to determine the chymotrypsin-like, trypsin-like or caspase-like (post-acidic)-activities of the proteasome. Substrate was incubated with proteasome at 37° C. in assay-buffer (20 mM Tris/Cl, pH 7.2, 1 mM EDTA, 1 mM DTT) for one hour. 100 ng proteasome was pre-incubated with 0.01-10 μM of the inhibitor for […]. The reaction was started by the addition of substrate (50 μM). The AMC as released was detected using fluorescence emission at 460 nm (excitation at 390 nm) using a TECAN-fluorimeter. The activity was calculated in fluorescence-units. The inhibition is depicted by IC50-values.
(§2) The effects thereof were compared with the one of the commonly used proteasomal inhibitor 3 (MG132). The chymotrypsin-like (Suc-LLVY-AMC), the trypsin-like (Bz-VGR-AMC), and the caspase-like (Z-LLE-AMC)-activities of 20S proteasomes were determined following incubation for one hour at 37° C.
The IC50-values form the inhibition of the proteasome were calculated at increasing concentrations of the inhibitor. The samples were pre-incubated for 15 min in ice. The assay was started through the addition of 50 μM of one of the following fluorogenic peptide substrates:
The release of MCA was determined at 460 nm emission (excitation 390 nm). The IC50-values as calculated for MG132 served as controls.

[2] = tested on: T2, 20S proteasome; test: Inhibition of the different proteasomal activities, summary statements; assay type: biochemical; settings: for which proteasomal activities are inhibited (site selectivity): isolated proteasomes, specific substrates
T2 construct: Proteasomes were isolated from red blood cells; from tissue; host or cells: red blood cells
Procedure: The specific inhibition of a single catalytic site is of specific interest for the development of drugs. Thus, the inhibition of the different proteasomal activities of the proteasome was analysed (see also example 6). The different cleavage-preferences of the proteasome were determined by the specific substrate for the hydrophobic (chymotrypsin-like), the trypsine-like and the caspase-like activities of isolated proteasomes.
as §1, §2

[3] = target: T3, proteasomal activity in HeLa-cells (Homo sapiens, UniProt P20618+P28074); test: Intracellular inhibition of proteasomes in cultivated HeLa-cells; assay type: cell-based; settings: for reduction of the proteolytic activity in cells at 10 nM: HeLa cells; for membrane-permeation / stability during the incubation periods / proteasomal activity reduced to: cultivated cells; for proteasomal activity reduced to: remaining activity
T3 construct: endogenous in cells; host or cells: HeLa
Procedure: (§3) A, HeLa-cells were cultivated were 24 hours in the presence of the inhibitor. The protein concentration was determined in accordance with the cellular lysis according to Bradford in order to normalise the proteasomal activities to the different amounts of cells. Subsequently Complete (Roche) was added to all lysates, and the proteasomal activity was determined through the hydrolysis of Suc-LLVY-AMC. B, HeLa-cells was incubated with 1 μM of compound 15 for 2, 4, 6 and 24 hours. Cells were lysed, and proteins were separated through SDS-PAGE on a 10% gel, blotted to a PVDF-membrane. The accumulation of the poly-ubiquitinylated proteins was detected in a Western blot by an anti-ubiquitine-antibody (DAKO). C, HeLa-Cells were treated with increasing concentrations of the inhibitor 15, 25, 26, 27, and 28 for 24 hours (lane 1: without inhibitor; lane 2: 10 nM; lane 3: 100 nM and lane 4: 1 μM of the given inhibitor). Cells were lysed, proteins were separated on 15% gels, and the accumulation of the poly-ubiquitinylated proteins was controlled through Western blot.
HeLa-Cells were cultivated in RPMI, supplemented with 10% FCS and penicillin/streptomycin, at 5% CO2. Inhibitors were administered from 100×-stock solutions (in DMSO) at the final concentrations as indicated, and incubated with the cells for at least 20 hours.
Cultivated cells (HeLa) were harvested lysed and with 0.1% NP40 in TEAD in the presence of the commercially available protease-inhibitor-mixture Complete (Roche). The proteasomal activity was measured in 10 μl of the lysate using Suc-LLVY-AMC as a substrate. The protein content was quantified by means of Bradford (Protein assay; BioRad).
An application on cell cultures or animals requires that the concentrations of the inhibitors are chose as low as required. The specific proteasomal activity was reduced to a value of below 50% in cells that were treated with 1 μM of the compounds 15, 22, 25, 26, or 28, respectively (FIG. 6A).

[4] = tested on: poly-ubiquitinylated proteins in HeLa-cells; test: Accumulation of poly-ubiquitinylated proteins, Western blot; assay type: cell-based; settings: 1 μM for compound 15
Procedure: as §3
A specific inhibition of the proteasome lead to an accumulation of poly-ubiquitinylated proteins. Indeed, the amount of poly-ubiquitinylated proteins increased during the incubation with the inhibitors. First effects were observed after 2 hours, for compound 15 (FIG. 6B) as well as for compounds 20, 22, 25 and 28 (data not shown).
50 μg of whole-cell-lysate were separated by SDS-PAGE, and blottet onto a PVDF-membrane (Millipore). The blots were blocked by means of a 5% milk-suspension. The poly-ubiquitinylated proteins were detected by anti-ubiquitin-antibody (DAKO), and anti-rabbit, POD-labelled, as a secondary antibody (DIANOVA), and visualized through ECL.

[5] = tested on: Human melanoma cells (MeWo); test: Viability of human melanoma cells (MeWo), crystal violet-staining; assay type: cell-based; settings: 72 h
Procedure: A, Human melanoma cells (MeWo) were treated with increasing concentrations of the compounds 15 or 3 (MG132) for 72 hours. The viability of the cells after the treatment with compound 15 (-♦-) and with MG132 (-□-) was detected by a crystal-violet-staining. B and C, MeWo cells were co-cultivated with the compounds 15 and 3 (MG132) for 24 hours. The cells were subsequently fixed in 70% ethanol, and treated with RNAse A. The DNA was stained with propidium iodide (5 μg/ml), and analysed by means of FACS (FACS Calibur flow cytometer; Beckton Dickinson). The statistical significance was detected by the chi-square-test. The relative distribution of the cells that were present in the G1-(black), in the S-(white) or in the G2 phase (hatched) of the cellular cycle is shown for both compounds as examined (15 in B and MG132 in C).
Human melanoma cells (MeWo) were incubated for 72 h with different concentrations of the inhibitor 15 and 28, and the viability of the cells was determined by means of crystal violet-staining (FIG. 8).

SMILES | pIC50 [1] | which proteasomal activities are inhibited (site selectivity) [2] | pIC50 ([2]; proteasomal activity not given, read-out: IC50-values of the most potent inhibitors) | reduction of the proteolytic activity in cells at 10 nM [3] | membrane-permeation [3] | stability during the incubation periods [3] | proteasomal activity reduced to [3] [%] | first effects on accumulation of poly-ubiquitinylated proteins observed after [4] [h] | sensitivity of tumour cells [5] | pIC50 ([5]; Homo sapiens, read-out: concentration at rate of survival of 50% of the cells)
CC(C)CC(C=O)NC(=O)C(CC(=O)OC(C)(C)C)NC(=O)C(CC(C)C)NC(=O)OCc1ccccc1 (stereo not drawn) [Compound 15, Z-Leu-Asp(O^tBu)Leu-CHO] (Cbz-Leu-Asp(OtBu)-Leu-aldehyde; configuration not given here) | 5.75 | inhibited all of the proteasomal hydrolytic activities | > 7.22 | reduction of the proteolytic activity | able to penetrate cellular membranes; also recorded: membrane-permeation | sufficient stability | 10 | 2 | increased sensitivity of tumour cells | 7.82
CC(C)C[C@H](NC(=O)OCc1ccccc1)C(=O)N[C@@H](CC(C)C)C(=O)N[C@@H](CC(C)C)C(=O)C(=O)Nc1ccccc1 [Compound 28] | < 5.00 | exclusive reduction of the chymotryptic activity | – | reduction of the proteolytic activity | membrane-permeation | sufficient stability | 10 | 2 | increased sensitivity of tumour cells | –
